We go through 14 compounds from the Kinase Knowledgebase extract (Sharma et al. 2016).

The structures appear in SMILES notation.

The target of experiment [1] is EGFR (Balb/c mice) (UniProt P00533). The settings on record: balb/c3t3.
In a further experiment the target is EGFR (UniProt P00533).
Experiment [2] has as its target EGFR (Balb/c mice) (UniProt P00533). Particulars: balb/mk cells.
For a further experiment, the target named is EGFR (human) (UniProt P00533). The settings on record: a431.
Chain of EGFR (human) (P00533 whole entry, looked up): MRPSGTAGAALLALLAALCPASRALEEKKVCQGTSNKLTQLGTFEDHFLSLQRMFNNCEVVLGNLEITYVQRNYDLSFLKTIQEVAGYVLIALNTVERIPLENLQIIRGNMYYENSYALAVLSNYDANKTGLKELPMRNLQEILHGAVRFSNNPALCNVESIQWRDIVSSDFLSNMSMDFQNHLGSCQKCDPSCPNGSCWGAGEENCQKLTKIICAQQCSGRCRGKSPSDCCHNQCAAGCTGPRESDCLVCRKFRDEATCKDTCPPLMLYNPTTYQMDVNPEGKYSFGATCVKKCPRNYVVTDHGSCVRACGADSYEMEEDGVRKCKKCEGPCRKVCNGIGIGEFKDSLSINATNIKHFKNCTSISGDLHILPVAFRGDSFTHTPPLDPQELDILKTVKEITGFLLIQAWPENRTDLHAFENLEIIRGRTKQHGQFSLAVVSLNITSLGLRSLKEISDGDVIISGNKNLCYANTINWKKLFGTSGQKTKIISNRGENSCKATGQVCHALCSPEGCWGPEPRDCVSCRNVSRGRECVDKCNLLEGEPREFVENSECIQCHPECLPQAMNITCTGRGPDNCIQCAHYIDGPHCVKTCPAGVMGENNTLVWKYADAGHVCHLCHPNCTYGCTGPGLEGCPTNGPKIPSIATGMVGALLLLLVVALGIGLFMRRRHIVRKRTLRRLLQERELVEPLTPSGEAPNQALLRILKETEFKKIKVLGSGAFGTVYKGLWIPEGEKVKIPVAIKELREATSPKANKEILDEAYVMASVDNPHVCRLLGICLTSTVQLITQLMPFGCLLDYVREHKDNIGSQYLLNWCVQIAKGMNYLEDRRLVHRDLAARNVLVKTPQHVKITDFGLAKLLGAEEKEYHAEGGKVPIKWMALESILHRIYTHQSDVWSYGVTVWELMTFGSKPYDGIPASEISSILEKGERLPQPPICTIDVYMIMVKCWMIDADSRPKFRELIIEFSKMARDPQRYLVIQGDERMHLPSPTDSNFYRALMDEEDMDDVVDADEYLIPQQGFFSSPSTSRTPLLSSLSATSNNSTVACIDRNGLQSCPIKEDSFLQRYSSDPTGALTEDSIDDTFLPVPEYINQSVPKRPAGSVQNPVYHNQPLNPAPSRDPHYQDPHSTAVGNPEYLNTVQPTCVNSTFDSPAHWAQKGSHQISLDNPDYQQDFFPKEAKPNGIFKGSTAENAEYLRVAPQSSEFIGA

Chain of EGFR (P00533 whole entry, looked up): as above

Usually IC50 stands for the concentration at which inhibition is half-maximal. Low values mean inhibition by little substance, high ones a need for much substance. As for `CCc1csc(-c2cc3c(Nc4cccc(Cl)c4)ncnc3[nH]2)n1`, the figures for the IC50 in the experiment with EGFR (Balb/c mice) [1], on EGFR and with EGFR (Balb/c mice) [2] were 1 to 100 nM, 0.5 to 1000 nM and 100 to 1000 nM, respectively.
As to `O=C(c1ccc(-c2cc3c(Nc4cccc(Cl)c4)ncnc3[nH]2)cc1)N1CCOCC1`, the IC50 lay within 1 to 100 nM in the experiment with EGFR (Balb/c mice) [1], 0.5 to 1000 nM at EGFR and 100 to 1000 nM with EGFR (Balb/c mice) [2].
Taken in the same sequence, the figures for `CCS(=O)(=O)Nc1ccc(-c2cc3c(N[C@H](C)c4ccccc4)ncnc3[nH]2)cc1` were 1 to 100 nM, 0.5 to 1000 nM and 100 to 1000 nM.
Consider `CCNC(=O)Nc1ccc(-c2cc3c(N[C@H](C)c4ccccc4)ncnc3[nH]2)cc1`, for which the IC50 with EGFR (Balb/c mice) [1] is 1 to 100 nM; against EGFR, 0.5 to 1000 nM; with EGFR (Balb/c mice) [2] it was 100 to 1000 nM.
Taken in the same sequence, the figures for `COc1cc(-c2cc3c(Nc4ccccc4)ncnc3[nH]2)ccc1O` were 1 to 100 nM, 0.5 to 1000 nM and 100 to 1000 nM.
Turning to `Clc1cccc(Nc2ncnc3[nH]c(-c4ccc(NCc5ccccc5)cc4)cc23)c1`, the figures for the IC50 with EGFR (Balb/c mice) [1], against EGFR and with EGFR (Balb/c mice) [2] were 1 to 100 nM, 0.5 to 1000 nM and 100 to 1000 nM, respectively.
`CN1CCN(C(=O)c2cc3c(Nc4cccc(Cl)c4)ncnc3[nH]2)CC1`: the IC50 was 1 to 100 nM with EGFR (Balb/c mice) [1], 0.5 to 1000 nM on EGFR and 100 to 1000 nM with EGFR (Balb/c mice) [2]. For the same compound, the IC100 result against EGFR (human) is on record as “Between 0.001 to 1.000 uM”.
Turning to `CON=Cc1cc2c(Nc3cccc(Cl)c3)ncnc2[nH]1`, the values for the IC50 with EGFR (Balb/c mice) [1], against EGFR and in the experiment with EGFR (Balb/c mice) [2] were 1 to 100 nM, 0.5 to 1000 nM and 100 to 1000 nM, respectively.
As for `CCS(=O)(=O)Nc1cccc(-c2cc3c(N[C@H](C)c4ccccc4)ncnc3[nH]2)c1`, the IC50 was 1 to 100 nM with EGFR (Balb/c mice) [1], 0.5 to 1000 nM against EGFR and 100 to 1000 nM with EGFR (Balb/c mice) [2].
Regarding `CNC(=S)Nc1cccc(-c2cc3c(N[C@H](C)c4ccccc4)ncnc3[nH]2)c1`, the IC50 with EGFR (Balb/c mice) [1] lay in the range of 1 to 100 nM; against EGFR, 0.5 to 1000 nM; with EGFR (Balb/c mice) [2], 100 to 1000 nM.
For `NC(=S)c1cc2c(Nc3cccc(Cl)c3)ncnc2[nH]1`, in that order: 1 to 100 nM, 0.5 to 1000 nM and 100 to 1000 nM.
Consider `O=C(c1cc2c(Nc3cccc(Cl)c3)ncnc2[nH]1)N1CCOCC1`, for which the values for the IC50 in the experiment with EGFR (Balb/c mice) [1], at EGFR and with EGFR (Balb/c mice) [2] were 1 to 100 nM, 0.5 to 1000 nM and 100 to 1000 nM, respectively.
In the case of `CCNC(=O)Nc1ccc(-c2cc3c(Nc4cccc(Cl)c4)ncnc3[nH]2)cc1`, the IC50 lay in the range of 1 to 100 nM in the experiment with EGFR (Balb/c mice) [1], 0.5 to 1000 nM at EGFR and 100 to 1000 nM with EGFR (Balb/c mice) [2].
`CN(C)C=Nc1cccc(-c2cc3c(Nc4cccc(Cl)c4)ncnc3[nH]2)c1`: the results for the half-inhibitory concentration (IC50) with EGFR (Balb/c mice) [1], on EGFR and with EGFR (Balb/c mice) [2] were 1 to 100 nM, 0.5 to 1000 nM and 100 to 1000 nM, respectively.
